Measurements reported in patent US20240034736A1, “HSD17B13 INHIBITORS AND USES THEREOF” (FL2022-001, Inc., priority 2020, published 2024).

biological target: Recombinant human HSD17B13 enzyme (Homo sapiens (Human), UniProt Q7Z5P4); assay: HSD17b13 NAD(P)H-Glo Biochemical Assay; conditions: 50 uM estradiol, 1 mM NAD+; read-out: HSD17β13 IC50
Method: Recombinant human HSD17B13 enzyme. Substrate: estradiol (Sigma β-Estradiol E8875), 100 mM in DMSO. […] Assay buffer final concentration: 20 mM Tris pH7.4 with 0.002% Tween-20 and 0.02% BSA. […] Enzymatic activity detected by NAD(P)H-Glo™ Detection System (Promega G9062).
Inhibitor compounds were serially diluted in DMSO and then further diluted in assay buffer to a 10× concentration consisting of 1% DMSO.
HSD17b13 enzyme was diluted in 1× assay buffer to the desired enzyme concentration based on the specific activity of the enzyme lot. 20 uL of diluted enzyme was added to each well along with 2.5 uL of 10× inhibitor solution. Assay plate was incubated at RT for 20 minutes, and then 2.5 uL of a 10× substrate/cofactor mix was added to each well for a final concentration of 50 uM estradiol and 1 mMNAD+. Assay plate was incubated at 37° C. for 3 hours. NAD(P)H-Glo™ Detection System reagents were prepared according to manufacturer's specifications, and 25 uL was added to each well. After incubating for 1 hour at RT, luminescence was measured.

Sequence of Recombinant human HSD17B13 enzyme (Q7Z5P4 20-300): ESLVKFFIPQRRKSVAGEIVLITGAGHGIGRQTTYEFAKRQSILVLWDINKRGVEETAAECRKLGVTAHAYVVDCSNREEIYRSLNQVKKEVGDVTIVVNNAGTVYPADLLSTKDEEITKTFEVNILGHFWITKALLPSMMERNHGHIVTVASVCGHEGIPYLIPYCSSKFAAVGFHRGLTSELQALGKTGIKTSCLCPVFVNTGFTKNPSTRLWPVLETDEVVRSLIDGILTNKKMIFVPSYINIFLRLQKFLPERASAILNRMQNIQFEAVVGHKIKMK

`N#Cc1ccccc1-c1ccc2c(cnn2-c2ccc(F)c(O)c2)c1` [Compound 6, 2-(1-(4-Fluoro-3-hydroxyphenyl)-1H-indazol-5-yl)benzonitrile] and `CC(=O)Nc1ccc(-c2ccc3c(cnn3-c3ccc(F)c(O)c3)c2)c(Cl)c1` [Compound 5.18, N-(3-Chloro-4-(1-(4-fluoro-3-hydroxyphenyl)-1H-indazol-5-yl)phenyl)acetamide] fall in the same range of IC50: 0.1 to 1 µM for the first, 0.1 to 1 µM for the second.

First: CC1(c2ccc3c(cnn3-c3cc(O)c(F)c(F)c3)c2)CCN(S(C)(=O)=O)CC1 [Compound 28.03, 2,3-Difluoro-5-(5-(4-methyl-1-(methylsulfonyl)piperidin-4-yl)-1H-indazol-1-yl)phenol]
Second: CN(C)S(=O)(=O)C1CN(c2ccc3c(cnn3-c3cc(O)c(F)c(F)c3)c2)C1 [Compound 21.36, 1-(1-(3,4-Difluoro-5-hydroxy-phenyl)-1H-indazol-5-yl)-N,N-dimethylazetidine-3-sulfon-amide]
The IC50 of the first is higher: 1 to 30 µM for the first, 0.1 to 1 µM for the second.

First: Cc1cc(-n2cc3cc(N4CCN(S(C)(=O)=O)CC4)ncc3n2)cc(O)c1F [Compound 19.24, 2-Fluoro-3-methyl-5-(5-(4-(methylsulfonyl)piperazin-1-yl)-2H-pyrazolo[3,4-c]pyridine-2-yl)phenol]
Second: CS(=O)(=O)N1CCN(c2cc3cn(-c4cc(O)c(F)c(Cl)c4)nc3cn2)CC1 [Compound 19.22, 3-Chloro-2-fluoro-5-(5-(4-(methylsulfonyl)piperazin-1-yl)-2H-pyrazolo[3,4-c]pyridine-2-yl)phenol]
The IC50 of the first is higher: 1 to 30 µM for the first, 0.1 to 1 µM for the second.

Compared with `Oc1cccc(-n2ncc3cc(-c4ccc(O)c(Cl)c4)ccc32)c1` [Compound 3.05, 2-Chloro-4-(1-(3-hydroxyphenyl)-1H-indazol-5-yl)phenol], `CNC(=O)c1ccc(-c2ccc3c(cnn3-c3ccc(F)c(O)c3)c2)c(Cl)c1` [Compound 5.26, 3-Chloro-4-(1-(4-fluoro-3-hydroxyphenyl)-1H-indazol-5-yl)-N-methylbenzamide] is lower in IC50: 1 to 30 µM for the first, 0.1 to 1 µM for the second. The second is the more potent here.

`O=S(=O)(c1ccccc1)N1CCN(c2cc3cnn(-c4cc(O)c(F)c(F)c4)c3cc2Cl)CC1` [Compound 21.39, 5-(6-Chloro-5-(4-(phenyl-sulfonyl)piperazin-1-yl)-1H-indazol-1-yl)-2,3-difluoro-phenol] and `O=S(=O)(CC1CC1)N1CCN(c2cc3cnn(-c4cc(O)c(F)c(F)c4)c3cc2Cl)CC1` [Compound 21.38, 5-(6-Chloro-5-(4-((cycloprop-ylmethyl)sulfonyl)piperazin-1-yl)-1H-indazol-1-yl)-2,3-difluorophenol] fall in the same range of IC50: 0.1 to 1 µM for the first, 0.1 to 1 µM for the second.

First: CS(=O)(=O)N1CCN(c2cc3c(C4CC4)nn(-c4cc(O)c(F)c(C(F)(F)F)c4)c3cn2)CC1 [Compound 21.51, 5-(3-Cyclopropyl-5-(4-(meth-ylsulfonyl)piperazin-1-yl)-1H-pyrazolo[3,4-c]pyridine-1-yl)-2-fluoro-3-(trifluoromethyl)-phenol]
Second: CS(=O)(=O)N1CCN(c2cc3cn(-c4cc(O)c(F)c(C(F)(F)F)c4)nc3cc2Cl)CC1 [Compound 19.46, 5-(6-Chloro-5-(4-(methylsulfonyl)piperazin-1-yl)-2H-indazol-2-yl)-2-fluoro-3-(trifluoromethyl)phenol]
The IC50 of the first is higher: 0.1 to 1 µM for the first, < 0.1 µM for the second. The second is the more potent here.

`CNc1nn(-c2cc(C(F)(F)F)c(F)c(O)c2F)c2ccc(N(C)C3CCOCC3)cc12` [Compound 19.106, 2,6-Difluoro-3-(5-(methyl(tetrahydro-2H-pyran-4-yl)amino)-3-(methylamino)-1H-indazol-1-yl)-5-(trifluoromethyl)phenol] and `COc1nn(-c2cc(C(F)(F)F)c(F)c(O)c2F)c2ccc(N(C)C3CCOCC3)cc12` [Compound 19.72, 2,6-Difluoro-3-(3-methoxy-5-(methyl(tetrahydro-2H-pyran-4-yl)amino)-1H-indazol-1-yl)-5-(trifluoromethyl)phenol] fall in the same range of IC50: 0.1 to 1 µM for the first, 0.1 to 1 µM for the second.

`Cc1nn(-c2cc(O)c(F)c(NC(=O)C(F)(F)F)c2)c2cnc(N3CCOCC34CC4)cc12` [Compound 19.92, 2,2,2-Trifluoro-N-(2-fluoro-3-hydroxy-5-(3-methyl-5-(7-oxa-4-azaspiro[2.5]octan-4-yl)-1H-pyrazolo[3,4-c]pyridin-1-yl)phenyl)acetamide] and `Cc1nn(-c2cc(O)c(F)c(C(C)O)c2)c2cnc(N3CCOCC34CC4)cc12` (centres unmarked) [Compound 19.97, 2-Fluoro-3-(1-hydroxyethyl)-5-(3-methyl-5-(7-oxa-4-azaspiro[2.5]octan-4-yl)-1H-pyrazolo[3,4-c]pyridin-1-yl)phenol] fall in the same range of IC50: 1 to 30 µM for the first, 1 to 30 µM for the second.

First: CC1CN(S(C)(=O)=O)CCN1c1ccc2c(cnn2-c2cc(O)c(F)c(C(F)(F)F)c2)c1 (centres unmarked) [Compound 21.47, 2-Fluoro-5-(5-(2-methyl-4-(methylsulfonyl)piperazin-1-yl)-1H-indazol-1-yl)-3-(trifluoromethyl)phenol]
Second: CC(C)c1nn(-c2cc(O)c(F)c(F)c2)c2ccc(N3CCN(S(C)(=O)=O)CC3)cc12 [Compound 21.03, 2,3-Difluoro-5-(3-isopropyl-5-(4-(methylsulfonyl)piperazin-1-yl)-1H-indazol-1-yl)phenol]
The IC50 of the first is lower: 0.1 to 1 µM for the first, 1 to 30 µM for the second. The first is the more potent here.

First: O=C(O)CCOc1ccc(-c2ccc3c(cnn3-c3ccc(F)c(O)c3)c2)cc1 [Compound 15, 3-(4-(1-(4-Fluoro-3-hydroxyphenyl)-1H-indazol-5-yl)phenoxy)propanoic acid]
Second: CC(C)S(=O)(=O)Nc1ccc(-c2ccc3c(cnn3-c3ccc(F)c(O)c3)c2)cc1 [Compound 11, N-(4-(1-(4-Fluoro-3-hydroxyphenyl)-1H-indazol-5-yl)phenyl)propane-2-sulfonamide]
The IC50 of the first is higher: 1 to 30 µM for the first, 0.1 to 1 µM for the second. The second is the more potent here.

First: O=S(=O)(Nc1ccc(-c2ccc3c(cnn3-c3ccc(F)c(O)c3)c2)cc1)c1ccccc1 [Compound 11.01, N-(4-(1-(4-Fluoro-3-hydroxyphenyl)-1H-indazol-5-yl)phenyl)benzenesulfonamide]
Second: CS(=O)(=O)N1CCN(c2cc3cnn(-c4cccc(O)c4F)c3cn2)CC1 [Compound 19.11, 2-Fluoro-3-(5-(4-(methylsulfonyl)piperazin-1-yl)-1H-pyrazolo[3,4-c]pyridine-1-yl)phenol]
The IC50 of the first is lower: 0.1 to 1 µM for the first, 1 to 30 µM for the second.

`Oc1c(F)c(-n2nnc3cc(N4CCOCC45CC5)ncc32)cc(C(F)(F)F)c1F` [Compound 21.59, 3-(6-(7-Oxa-4-azaspiro[2.5]-octan-4-yl)-3H-[1,2,3]triazolo-[4,5-c]pyridin-3-yl)-2,6-difluoro-5-(trifluoromethyl)-phenol] and `Cc1nn(-c2cc(C(F)(F)F)c(F)c(O)c2F)c2cnc(N3CCOCC34CC4)nc12` [Compound 19.95, 2,6-Difluoro-3-(3-methyl-5-(7-oxa-4-azaspiro[2.5]octan-4-yl)-1H-pyrazolo[4,3-d]pyrimidin-1-yl)-5-(trifluoromethyl)phenol] fall in the same range of IC50: 0.1 to 1 µM for the first, 0.1 to 1 µM for the second.

Compared with `CN(c1ccc2c(c1)c(C#N)nn2-c1cc(C(F)(F)F)c(F)c(O)c1F)C1CCOCC1` [Compound 19.90, 1-(2,4-Difluoro-3-hydroxy-5-(trifluoromethyl)phenyl)-5-(methyl(tetrahydro-2H-pyran-4-yl)amino)-1H-indazole-3-carbonitrile], `COC1CCN(c2ncc3c(n2)c(C)nn3-c2cc(C(F)(F)F)c(F)c(O)c2F)CC1` [Compound 19.77, 2,6-Difluoro-3-(5-(4-methoxypiperidin-1-yl)-3-methyl-1H-pyrazolo[4,3-d]pyrimidin-1-yl)-5-(trifluoromethyl)phenol] is lower in IC50: 0.1 to 1 µM for the first, < 0.1 µM for the second.
